In US11713335B2, “Aminocoumarin compounds and methods of their use” (President and Fellows of Harvard College, priority 2018, dated 2023) one finds MIC data, which are given here for twelve compounds.

Converted amounts (≈) assume the structure as drawn. Like-named read-outs stand apart in the source and are kept apart here. Bounds are passed on as bounds.

One assay deals with WT E. coli. Kind of assay: Minimal inhibitory concentration in wild-type E. coli. In kind it is cell-based, Escherichia coli. The note with it: wild-type E. coli, 37° C., 16 hours, read-out: MIC (μM) in WT E. coli. Summed up:
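Broth microdilution: saturated LB overnight culture diluted 1:100 twice, compound serially two-fold diluted across the plate from DMSO stock. Static incubation 16 hours at 37° C, OD600 read; MIC taken as lowest concentration inhibiting growth.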

Another assay relates to E. cloacae 13047. Kind of assay: Minimal inhibitory concentration, E. cloacae 13047. Particulars: 16 hour minimal inhibitory concentration at 37° C., read-out: MIC (μM) E. cloacae 13047. In kind it is cell-based. Summed up:
(§1)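 MIC, in µM, taken as the lowest compound concentration preventing growth by OD600 after 16 h static incubation at 37 °C. Compound was twofold serially diluted in bacteria grown overnight in LB, or TSA for S. aureus, and diluted 1:100 twice.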

Another assay deals with A. baumannii 19606. Kind of assay: Minimal inhibitory concentration, A. baumannii 19606. The note with it: 16 hour minimal inhibitory concentration at 37° C., read-out: MIC (μM) A. baumannii 19606. In kind it is cell-based. Summed up:
as §1

The next assay concerns S. aureus MW2. Kind of assay: Minimal inhibitory concentration, S. aureus MW2. Particulars: 16 hour minimal inhibitory concentration at 37° C., read-out: MIC (μM) S. aureus MW2 (MRSA). In kind it is cell-based. Summed up:
as §1

The next assay concerns E. coli MC4100. Kind of assay: Minimal inhibitory concentration, E. coli MC4100. Particulars: 16 hour minimal inhibitory concentration at 37° C., read-out: MIC (μM) E. coli MC4100 ara+. In kind it is cell-based. Summed up:
as §1

The test system of another assay is K. pneumoniae 700721. Kind of assay: Minimal inhibitory concentration, K. pneumoniae 700721. In kind it is cell-based. The note with it: 16 hour minimal inhibitory concentration at 37° C., read-out: MIC (μM) K. pneumoniae 700721. Summed up: as §1
In a further assay the test system is E. coli 25922. Kind of assay: Minimal inhibitory concentration, E. coli 25922. In kind it is cell-based. The note with it: 16 hour minimal inhibitory concentration at 37° C., read-out: MIC (μM) E. coli 25922. Summed up: as §1
Another assay deals with S. aureus RN4220. Kind of assay: Minimal inhibitory concentration, S. aureus RN4220. In kind it is cell-based. Particulars: 16 hour minimal inhibitory concentration at 37° C., read-out: MIC (μM) S. aureus RN4220. Summed up: as §1

As to `CO[C@@H]1[C@@H](OC(N)=O)[C@@H](O)[C@H](Oc2ccc3c(O)c(NC(=O)c4cc(N)cc(-c5ccccc5)c4)c(=O)oc3c2C)OC1(C)C` [Compound 89], the MIC (as a rule, the lowest concentration found to suppress growth) in the assay on WT E. coli is 59 µM (≈ 36.6 µg/mL); in the assay with E. cloacae 13047, more than 100 µM; with A. baumannii 19606 it was more than 50 µM; in the assay with S. aureus MW2, 10 µM (≈ 6.2 µg/mL); in the assay with E. coli MC4100, 59 µM (≈ 36.6 µg/mL); in the assay with K. pneumoniae 700721, more than 100 µM. For the same compound, the MIC in the assay with E. coli 25922 turned out to be 81 µM (≈ 50.2 µg/mL); with S. aureus RN4220, 20 µM (≈ 12.4 µg/mL).
As for `CO[C@@H]1[C@@H](OC(N)=O)[C@@H](O)[C@H](Oc2ccc3c(O)c(NC(=O)c4ccc(O)c(CC(N)=O)c4)c(=O)oc3c2C)OC1(C)C` [Compound 90], the MIC is reported as more than 300 µM in the assay with WT E. coli; more than 100 µM in the assay on E. cloacae 13047; more than 50 µM with A. baumannii 19606; more than 100 µM with S. aureus MW2; more than 200 µM in the assay with E. coli MC4100; more than 100 µM with K. pneumoniae 700721. For the same compound, the figures for the MIC in the assay with E. coli 25922 and in the assay with S. aureus RN4220 were more than 200 µM and more than 100 µM, respectively.
As to `CO[C@@H]1[C@@H](OC(N)=O)[C@@H](O)[C@H](Oc2ccc3c(O)c(NC(=O)c4ccc(O)c(CCC(N)=O)c4)c(=O)oc3c2C)OC1(C)C` [Compound 91], the minimum inhibitory concentration (MIC) was more than 300 µM in the assay on WT E. coli; more than 100 µM in the assay on E. cloacae 13047; more than 50 µM with A. baumannii 19606; more than 100 µM in the assay on S. aureus MW2; more than 200 µM in the assay on E. coli MC4100; more than 100 µM in the assay with K. pneumoniae 700721. In addition, the MIC is more than 200 µM with E. coli 25922 and more than 100 µM in the assay on S. aureus RN4220.
Turning to `CO[C@@H]1[C@@H](OC(N)=O)[C@@H](O)[C@H](Oc2ccc3c(O)c(NC(=O)c4ccc(O)c(-c5ccc6ccccc6c5)c4)c(=O)oc3c2C)OC1(C)C` [Compound 92], the MIC is listed as 150 µM (≈ 101 µg/mL) with WT E. coli; more than 100 µM in the assay with E. cloacae 13047; 1.16 µM (≈ 0.778 µg/mL) with A. baumannii 19606; 0.09 µM (≈ 0.0604 µg/mL) in the assay with S. aureus MW2; 150 µM (≈ 101 µg/mL) with E. coli MC4100; more than 100 µM in the assay on K. pneumoniae 700721. The MIC with E. coli 25922 was more than 200 µM; with S. aureus RN4220, 0.09 µM (≈ 0.0604 µg/mL).
For `CO[C@@H]1[C@@H](OC(N)=O)[C@@H](O)[C@H](Oc2ccc3c(O)c(NC(=O)c4ccc(O)c(-c5cccc6ccccc56)c4)c(=O)oc3c2C)OC1(C)C` [Compound 93], the MIC in the assay with WT E. coli is listed as 75 µM (≈ 50.3 µg/mL); with E. cloacae 13047 it was more than 100 µM; with A. baumannii 19606, more than 50 µM; in the assay on S. aureus MW2, 19 µM (≈ 12.7 µg/mL); in the assay on E. coli MC4100 it was 75 µM (≈ 50.3 µg/mL); in the assay with K. pneumoniae 700721, more than 100 µM. The values for the MIC in the assay on E. coli 25922 and in the assay with S. aureus RN4220 were more than 200 µM and 37 µM (≈ 24.8 µg/mL), respectively.
For `CO[C@@H]1[C@@H](OC(N)=O)[C@@H](O)[C@H](Oc2ccc3c(O)c(NC(=O)c4cccc(-c5ccc(O)c(O)c5)c4)c(=O)oc3c2C)OC1(C)C` [Compound 94], the MIC is recorded as more than 300 µM with WT E. coli; more than 100 µM with E. cloacae 13047; more than 50 µM in the assay with A. baumannii 19606; 20 µM (≈ 12.7 µg/mL) in the assay on S. aureus MW2; more than 200 µM with E. coli MC4100; more than 100 µM in the assay on K. pneumoniae 700721. Moreover, the MIC in the assay with E. coli 25922 is listed as more than 200 µM; in the assay with S. aureus RN4220, 20 µM (≈ 12.7 µg/mL).
Turning to `CO[C@@H]1[C@@H](OC(N)=O)[C@@H](O)[C@H](Oc2ccc3c(O)c(NC(=O)c4cc(O)c(O)c(-c5ccc(F)cc5)c4)c(=O)oc3c2C)OC1(C)C` [Compound 95], the MIC in the assay with WT E. coli is reported as 38 µM (≈ 24.9 µg/mL); with E. cloacae 13047, more than 100 µM; in the assay with A. baumannii 19606, more than 50 µM; in the assay with S. aureus MW2, 38 µM (≈ 24.9 µg/mL); in the assay on E. coli MC4100, 38 µM (≈ 24.9 µg/mL); with K. pneumoniae 700721, more than 100 µM. Moreover, the MIC in the assay on E. coli 25922 and with S. aureus RN4220 was 38 µM (≈ 24.9 µg/mL) throughout.
For the compound `CO[C@@H]1[C@@H](OC(N)=O)[C@@H](O)[C@H](Oc2ccc3c(O)c(NC(=O)c4cc(O)c(O)c(-c5ccc6ccccc6c5)c4)c(=O)oc3c2C)OC1(C)C` [Compound 96], the MIC is more than 300 µM in the assay with WT E. coli; more than 100 µM in the assay on E. cloacae 13047; 18 µM (≈ 12.4 µg/mL) in the assay on A. baumannii 19606; 9 µM (≈ 6.18 µg/mL) in the assay on S. aureus MW2; more than 200 µM in the assay with E. coli MC4100; 76 µM (≈ 52.2 µg/mL) in the assay with K. pneumoniae 700721. Besides, the MIC in the assay on E. coli 25922 is 146 µM (≈ 100 µg/mL); with S. aureus RN4220, 9 µM (≈ 6.18 µg/mL).
On to `CO[C@@H]1[C@@H](OC(N)=O)[C@@H](O)[C@H](Oc2ccc3c(O)c(NC(=O)c4cc(-c5ccc(F)cc5)cc(O)c4O)c(=O)oc3c2C)OC1(C)C` [Compound 97], for which the MIC in the assay on WT E. coli is listed as more than 300 µM; with E. cloacae 13047, more than 100 µM; in the assay on A. baumannii 19606, more than 50 µM; with S. aureus MW2, 38 µM (≈ 24.9 µg/mL); in the assay on E. coli MC4100, more than 200 µM; with K. pneumoniae 700721 it was more than 100 µM. The MIC with E. coli 25922 was found to be 153 µM (≈ 100 µg/mL); in the assay with S. aureus RN4220, 76 µM (≈ 49.7 µg/mL).
For the compound `CO[C@@H]1[C@@H](OC(N)=O)[C@@H](O)[C@H](Oc2ccc3c(O)c(NC(=O)c4cc(-c5ccc6ccccc6c5)cc(O)c4O)c(=O)oc3c2C)OC1(C)C` [Compound 98], the minimum inhibitory concentration (MIC) is more than 300 µM in the assay with WT E. coli; more than 100 µM in the assay with E. cloacae 13047; 36 µM (≈ 24.7 µg/mL) with A. baumannii 19606; 18 µM (≈ 12.4 µg/mL) in the assay on S. aureus MW2; more than 200 µM in the assay with E. coli MC4100; more than 100 µM in the assay on K. pneumoniae 700721. The MIC in the assay on E. coli 25922 is reported as more than 200 µM; with S. aureus RN4220, 18 µM (≈ 12.4 µg/mL).
As for `CO[C@@H]1[C@@H](OC(N)=O)[C@@H](O)[C@H](Oc2ccc3c(O)c(NC(=O)c4cccc(-c5cccc(O)c5O)c4)c(=O)oc3c2C)OC1(C)C` [Compound 99], the MIC with WT E. coli is given as more than 300 µM; in the assay with E. cloacae 13047, more than 100 µM; with A. baumannii 19606 it was more than 50 µM; in the assay on S. aureus MW2 it was 79 µM (≈ 50.3 µg/mL); with E. coli MC4100 it was more than 200 µM; with K. pneumoniae 700721, more than 100 µM. The minimal inhibitory concentration (MIC) with E. coli 25922 is more than 200 µM; with S. aureus RN4220 it was 79 µM (≈ 50.3 µg/mL).
For `CO[C@@H]1[C@@H](OC(N)=O)[C@@H](O)[C@H](Oc2ccc3c(O)c(NC(=O)c4ccc(O)c(CC=C(C)C)c4)c(=O)oc3c2C)OC1(C)C` [Novobiocin, novobiocin, reference compound], the MIC is 59 µM (≈ 36.1 µg/mL) in the assay with WT E. coli (Escherichia coli); more than 100 µM with E. cloacae 13047 (Enterobacter cloacae, 13047); 1.27 µM (≈ 0.778 µg/mL) with A. baumannii 19606 (Acinetobacter baumannii, 19606, 16 h); 0.25 µM (≈ 0.153 µg/mL) in the assay with S. aureus MW2 (Staphylococcus aureus, MRSA, 16 h); 59 µM (≈ 36.1 µg/mL) in the assay on E. coli MC4100 (Escherichia coli, MC4100, 16 h); more than 100 µM in the assay on K. pneumoniae 700721 (Klebsiella pneumoniae, 700721). Besides, the MIC in the assay with E. coli 25922 (Escherichia coli, 25922, 16 h) was 40 µM (≈ 24.5 µg/mL); in the assay on S. aureus RN4220 (Staphylococcus aureus, RN4220, 16 h), 0.2 µM (≈ 0.123 µg/mL).
